{
  "source": "BindingDB's records for PubMed 38373290",
  "about": "(University of the Republic (UdelaR))",
  "target": "Metallo-beta-lactamase type 2 (Klebsiella pneumoniae, UniProt C7C422)",
  "sequence (C7C422 whole entry)": "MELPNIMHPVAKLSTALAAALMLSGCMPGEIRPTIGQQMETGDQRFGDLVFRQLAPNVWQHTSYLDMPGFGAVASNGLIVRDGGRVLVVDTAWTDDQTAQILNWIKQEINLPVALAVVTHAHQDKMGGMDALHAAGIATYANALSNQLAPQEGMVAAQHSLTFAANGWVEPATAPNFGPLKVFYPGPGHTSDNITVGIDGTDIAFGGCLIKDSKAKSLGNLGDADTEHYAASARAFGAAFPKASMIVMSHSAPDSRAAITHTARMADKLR",
  "test": "Inhibition of his6-tagged NDM-1 (unknown origin) expressed in Escherichia coli BL21-DE3 incubated for 16 hrs",
  "data": [
    {"molecule": "SC[C@H]1SC[C@@H]2Nc3ccccc3N21", "values": [
      {"measurement": "IC50", "value": 770, "unit": "nM"}
    ]}
  ]
}
